According to US10792287B2, “Methods for treating mitochondrial diseases” (The Regents of the University of California, priority 2015, dated 2020):
Structures can show the parent of a compound that is named as a salt. Where two headings read alike, the source gives them in different places.

What was measured:
LHON cybrids (11778 G>A) = assay: Complex I-driven ATP synthesis in rotenone-inhibited LHON mutant cybrids (luciferase-based, high-throughput screen and concentration-response); format: cell-based
Ndufs4 knockout mice = assay: Visual cliff test; format: in vivo, mouse; settings: P21-P35 treatment; papaverine 20 mg/kg, zolpidem 20 mg/kg, rapamycin 8 mg/kg i.p.; idebenone 200 mg/kg oral
[1] = system: innate immune/inflammatory response in Ndufs4 KO retina; assay: Retinal gene expression of innate immune and inflammatory markers after drug treatment (Example 3); format: in vivo, mouse; settings: Ndufs4 KO mice; doses as in drug formulation
Procedure: The graphs represent RNA expression of B2m (FIG. 21A), Tlr2 (FIG. 21B), Cxc110 (FIG. 21C), Cc15 (FIG. 21D), and Aif1 (FIG. 21E) in the wild type and Ndufs4 knockout retina. Bars represent mean delta Ct values normalized to housekeeping genes, Actb and Mapk1. Error bars represent standard error of the mean. Statistical significance was determined by two-tailed student's t test. * P<0.05, ** P<0.01, **** P<0.0001.
(§1) Wild type and Ndufs4 knockout mice were placed in one of five groups: vehicle, papaverine (20 mg/kg), zolpidem (20 mg/kg), rapamycin (8 mg/kg), or idebenone (200 mg/kg). For papaverine, zolpidem, and rapamycin, drug was dissolved in DMSO which was diluted in 5% PEG-400/5% Tween-20 in PBS. Vehicle contained all components except for the drug. The solution was then sterile filtered and intraperitoneal injections were performed using a 30 gauge needle. Idebenone was administered as a jelly and consumed orally.
We have previously shown that inflammatory gene expression of Aif1, Tlr2, B2m, Cc15, and Cxc110 are all elevated in the Ndufs4 KO mouse compared to wild type by more than 3-fold, indicating an inflammatory pathomechanism of mitochondrial blindness (Yu et al., Proc Natl Acad Sci USA, 2015, 112(42): E5689-98). […] Papaverine, zolpidem, rapamycin, and idebenone were administered to Ndufs4 KO mice to determine whether their protection of vision (FIG. 20) was through an anti-inflammatory mechanism of action. […] Thus, papaverine, zolpidem, and rapamycin appear to protect mitochondrial loss of vision through an antiinflammatory mechanism.

[2] = system: control osteosarcoma cells and LHON mutant (11778 G>A) cells; assay: Validation of complex I-driven ATP synthesis assay with substrates and inhibitors of mitochondrial complexes; format: cell-based; settings: for mitochondrial ATP synthesis: inhibitor at 1 μM, malate/pyruvate substrates, permeabilized cells
Source text: The data is presented as ATP synthesis rate+standard deviation from one representative experiment.

[3] = system: inflammatory genes in retinas of Ndufs4 KO mice; assay: qRT-PCR of inflammatory genes in retinas after rapamycin treatment (Example 1); format: in vivo, mouse; settings: rapamycin 8 mg/kg intraperitoneally for 9 days
Procedure: FIG. 6 depicts an experimental reversal of inflammatory gene induction by rapamycin. White bars, a mean increase in transcript level of 16/16 inflammatory markers was observed by qRT-PCR in retinas of Ndufs4 KO mice compared to wild type. […] Statistical significance determined by student's t test. * P<0.05, ** P<0.01.
Rapamycin was dissolved in DMSO to 100 mg/mL. This was diluted in 5% PEG-400/5% Tween-20 (vehicle) to a concentration of 0.6 mg/mL, sterile filtered, and stored at −80 for long-term storage. Rapamycin treated mice were injected with 132 microliters/10 g body weight for a final dose of 8.0 mg/kg (Johnson et al., Science, 2013, 342, 1524-1528). Vehicle mice were injected with equal volume of PBS and DMSO lacking rapamycin. […]
The change in PCR products as the reaction proceeded was monitored by SYBR green dye (Invitrogen, Grand Island, N.Y.). […] Quantification cycle (Cq) values obtained by the Lightcycler were analyzed by normalizing the values to the reference genes and delta Cq values were calculated to determine relative gene expression values compared to wild type. Delta delta Cq was also calculated to determine the fold change difference between Ndufs4 knockout and wild type. Significance, p<0.05 was determined using two sample independent student's t-test statistics with equal sample size and assuming equal variance.

[4] = system: 11778(G>A) mutant cybrids; assay: Effect of rotenone on complex I-driven ATP synthesis in mutant vs control osteosarcoma cybrids; format: cell-based
Source text: (§2) The data is presented as average+standard deviation from three independent experiments and single asterisk signifies the statistical significance (P<0.05) between the control and LHON mutant cells.
Among the various LHON-associated mutations, 11778(G>A) mutation encoding ND4 subunit of mitochondrial complex I is the most prevalent and the most severe (Oostra et al., J Med Genet, 1994, 31, 280-286). It has been previously hypothesized that some external stress factors are responsible for the precipitation of vision loss in LHON (Chalmers et al., Biochimica et Biophysica Acta, 1999, 1410, 147-158). To understand the 11778(G>A) mutant mitochondrial functionality under stress, we evaluated the effect of a complex I inhibitor on complex I-driven ATP synthesis using an osteosarcoma cybrid model (FIG. 11A).
Measurement of complex I-driven ATP synthesis: The cybrid cells were seeded at 50000 cells/well in 100 μL of medium, in a white, opaque-bottom, 96-well plate coated with poly-D-lysine (Corning) and was incubated at 37° C. overnight. […] After 2 hr incubation at 37° C., the medium from the plates were aspirated using an automatic plate washer (Biotek) and complex I-driven ATP synthesis was measured following the protocol of Yoshida and Fujikawa (Fujikawa et al., Biochemical and Biophysical Research Communications, 2010, 401, 538-543). […]

[5] = system: 11778 (G>A) mutant lymphoblasts; assay: Effect of rotenone on complex I-driven ATP synthesis in lymphoblasts; format: cell-based; settings: gender-matched lymphoblasts
Procedure: as §2
For the lymphoblasts, drug-treated cells were centrifuged and resuspended at a concentration of 2×10^6 cells/mL, in the permeabilization buffer containing activated streptolysin O (Sigma). After 10 min incubation at 4° C., the cells were centrifuged and resuspended in transfer buffer at the same concentration. The cells were then incubated at 37° C. for 10 min followed by centrifugation and resuspension in buffer A containing malate (5 mM, Sigma), sodium pyruvate (5 mM, Sigma) and high purity ADP (200 μM, Apollo Scientific). Subsequently, 50 μL of buffer A containing 100,000 cells were plated in each wells of a 96-well plate. After 20 min of incubation at the room temperature the complex I-driven ATP synthesis was measured by using ATP Bioluminescence Assay Kit CLS II (Roche) following manufacturer's instruction.

control healthy cybrid = assay: Mitochondrial copy number (MT-TL1/B2M ratio), control cybrids; format: cell-based; settings: control cells; 24 hrs exposure
Procedure: (§3) FIGS. 14A-14C illustrate the effect of drugs on the mitochondrial copy number. Difference of mitochondrial copy number between 11778 (G>A) mutant and control cybrids (FIG. 14A). Effect of zolpidem and papaverine on the control healthy cybrid mitochondrial copy number (FIG. 14B) and 11778 (G>A) mutant cybrid mitochondrial copy number (FIG. 14C). Cells were treated with either vehicle or one of the drugs at specified concentration for 24 h. The cells were harvested after 24 h and the ratio between MT-TL1 and B2M was determined. Data is presented as average relative fold change±std. deviation from three independent observations. Statistical significance (p<0.05) is denoted by ‘*’ and was determined by one way ANOVA and Dunett's post hoc test.

[6] = system: 11778 (G>A) mutant cybrid; assay: Mitochondrial copy number (MT-TL1/B2M ratio), mutant cybrids; format: cell-based; settings: LHON mutant cells [11778(G>A)]; 24 hrs exposure
Procedure: as §3

Ndufs4 KO mice [7] = assay: Starburst amacrine cell count (ChAT staining of whole retina); format: in vivo, mouse; settings: two weeks (P21-P35) intraperitoneal injections
Procedure: 20× confocal images of whole retina stained with ChAT (marker of starburst amacrine cells) from wild type (FIG. 22A), Ndusf4 KO vehicle treated (FIG. 22B), Ndufs4 KO papaverine treated (FIG. 22C), Ndufs4 KO zolpidem treated (FIG. 22D), and Ndufs4 KO rapamycin treated (FIG. 22E) are shown.
as §1

Ndufs4 KO mice [8] = assay: Microglia activation (Iba1 staining of whole mount retinas); format: in vivo, mouse; settings: two weeks (P21-P35) intraperitoneal treatment
[9] = 20 h; read-out: Fold change of ATP synthesis rate greater than 2x Median Absolution Deviation

`Cn1cnc([N+](=O)[O-])c1Sc1ncnc2nc[nH]c12` [Azathioprine, azathioprine] gave a fold induction at 10 µM (LHON cybrids (11778 G>A); [9]) of 1.4.

For `O=c1[nH]cc(F)c(=O)[nH]1` [Fluorouracil, 5-fluorouracil], the fold induction at 10 µM (LHON cybrids (11778 G>A); [9]) was 1.1.

For `O=S(=O)(NCCNC/C=C/c1ccc(Br)cc1)c1cccc2cnccc12` [H89], the “effect of H89 on rotenone rescue effect of zolpidem” value (LHON cybrids (11778 G>A); H89 3 μM with zolpidem 30 μM) was “reversed the rotenone rescue effect of zolpidem” and the “effect of PKA inhibitor on papaverine's protection from rotenone” value (LHON cybrids (11778 G>A); papaverine 30 μM and H89 3 μM for 22 h, then rotenone 0.03 μM 2 h) was “did not decrease papaverine's ability to protect from rotenone”.

`C1N2CN3CN1CN(C2)C3` [Methenamine, methenamine] showed a fold induction at 10 µM (LHON cybrids (11778 G>A); [9]) of 1.3.

`CN(Cc1cnc2nc(N)nc(N)c2n1)c1ccc(C(=O)N[C@@H](CCC(=O)O)C(=O)O)cc1` [Methotrexate, methotrexate] showed a fold induction at 10 µM (LHON cybrids (11778 G>A); [9]) of 1.2.

In the case of `COc1ccc(OC)c(C(O)C(C)N)c1` (stereo not shown) [Methoxamine HCl, 2-amino-1-(2,5-dimethoxyphenyl)-1-propanol], the fold induction at 10 µM (LHON cybrids (11778 G>A); [9]) was 1.4.

In the case of `CN1CCc2cc3c(cc2[C@H]1[C@@H]1OC(=O)c2c1ccc1c2OCO1)OCO3` [bicuculine, bicuculline], the “effect of GABAA antagonist on reversal of rotenone inhibition by zolpidem” value (LHON cybrids (11778 G>A); zolpidem 30 μM and bicuculline 30 μM for 22 h, then rotenone 0.03 μM 2 h) was “no significant effect”.

With `COC1=C(OC)C(=O)C(CCCCCCCCCCO)=C(C)C1=O` [idebenone] the “visual function (median # edge detections)” value (Ndufs4 knockout mice) was “not significant” and the “innate immune/inflammatory gene expression (B2m, Tlr2, Cxcl10, Ccl5, Aif1) in retina” value [1] was “significantly inhibited a portion of the innate immune/inflammatory response”.

For `CC[C@H]1/C=C/C=C/C[C@@H](C)[C@H](O)[C@@](C)(O)C(=O)[C@@H](C)[C@H](O)[C@@H](C)C(=O)[C@@H](C)[C@H](O)[C@@H](C)/C=C/C(=O)O[C@@H]2[C@H](C)[C@H](CC1)O[C@]1(CC[C@H](C)[C@H](C[C@@H](C)O)O1)[C@H]2C` [oligomycin], the “mitochondrial ATP synthesis” value [2] was “inhibited the mitochondrial ATP synthesis”.

With `CO[C@H]1C[C@@H]2CC[C@@H](C)[C@@](O)(O2)C(=O)C(=O)N2CCCC[C@H]2C(=O)O[C@H]([C@H](C)C[C@@H]2CC[C@@H](O)[C@H](OC)C2)CC(=O)[C@H](C)/C=C(\C)[C@@H](O)[C@@H](OC)C(=O)[C@H](C)C[C@H](C)/C=C/C=C/C=C/1C` [rapamycin] the “transcripts with inhibition of mean amplitude of induction of inflammatory genes” value [3] was 16/16.

With `C=C(C)[C@H]1Cc2c(ccc3c2O[C@@H]2COc4cc(OC)c(OC)cc4[C@@H]2C3=O)O1` [rotenone] the “mitochondrial ATP synthesis” value [2] was “inhibited the mitochondrial ATP synthesis”, the “rotenone-dependent ATP synthesis defect across 11778, 3460 and 14484 mutant cybrids” value ([4]; 3 most common LHON mutations in cybrids) was “directly in proportion to the severity of the disease in humans” and the “sensitivity of complex I-driven ATP synthesis to rotenone” value ([4]; rotenone 0.001 μM-1 μM, 24 h, mutant clones HCT22, HFF3 vs control HGA2, H1959) was “highly sensitive to rotenone when compared to control”. For the same compound, the “differential effect of rotenone on mutant vs control ATP synthesis” value [5] was “clearly reproducible”.

In the case of `O=C(O)CCC(=O)O` [succinate], the “reversal of inhibitor-induced inhibition of ATP synthesis” value ([2]; succinate 5 mM vs rotenone, ascorbate/TMPD vs antimycin) was “reversed”.

For `Cc1ccc(-c2nc3ccc(C)cn3c2CC(=O)N(C)C)cc1` [zolpidem], the fold induction at 10 µM (LHON cybrids (11778 G>A); 20 h, read-out: Fold change of ATP synthesis rate greater than 2x Median Absolution Deviation) was 1.4, the “reversal of rotenone sensitivity of complex I-driven ATP synthesis” value (LHON cybrids (11778 G>A); different concentrations of drug 22 h, then rotenone 0.03 μM 2 h) was “dose-dependently reversed the rotenone-sensitivity” and the “ATP synthesis rate relative to vehicle-treated cells after rotenone” value (LHON cybrids (11778 G>A); zolpidem 30 μM pre-treatment; rotenone 0.03 μM) was 2 times. The “ATP synthesis rate compared to vehicle pre-treated cells” value (LHON cybrids (11778 G>A); zolpidem 3, 10, and 30 μM pre-treatment; rotenone 0.03 μM) was “significantly higher ATP synthesis rate”, the “ratio of mtDNA/nDNA” value (control healthy cybrid) was “did not significantly change the ratio of mtDNA/nDNA” and the “ratio of mtDNA/nDNA” value [6] was “did not significantly change the ratio of mtDNA/nDNA”. The “visual function (median # edge detections)” value (Ndufs4 knockout mice) was “visual function was preserved”, the “innate immune/inflammatory gene expression (B2m, Tlr2, Cxcl10, Ccl5, Aif1) in retina” value [1] was “significantly inhibited a portion of the innate immune/inflammatory response” and the “starburst amacrine cell loss” value (Ndufs4 KO mice [7]) was “significant protection of startburst amacrine cells from apoptosis”. The microglia activation (Ndufs4 KO mice [8]) was “decrease in microglia activation”.

For antimycin A, the “mitochondrial ATP synthesis” value [2] was “inhibited the mitochondrial ATP synthesis”.
